In ChEMBL document CHEMBL4118227, “Hexahydrobenzophenanthridine alkaloids from Corydalis bungeana Turcz. and their anti-inflammatory activity” (Bioorg Med Chem Lett, 2018):

What follows are molecules tested on RAW264.7 (assay: Antiinflammatory activity against mouse RAW264.7 cells assessed as inhibition of LPS induced nitric oxide production preincubated for 2 hrs followed by LPS challenge measured after 24 hrs by Griess reagent based assay).
Type: functional, cell-based
In the case of COc1cc2c(cc1O)C1Cc3ccc4c(c3CN1CC2)OCO4 (stereo not given) [CHEILANTHIFOLINE], the IC50 is reported as 1880 nM.
Molecule CC(=O)O[C@H]1Cc2cc3c(cc2[C@@H]2N(C)Cc4c(ccc5c4OCO5)[C@@]12C)OCO3 has an IC50 of 1000 nM.
CN(C)c1ccc(O)c2c1C[C@H]1C[C@H]3[C@H](N(C)C)C(O)=C(C(N)=O)C(=O)[C@@]3(O)C(O)=C1C2=O [MINOCYCLINE] gave an IC50 of 31300 nM.
Work on CN1Cc2c(ccc3c2OCO3)[C@@]2(C)[C@@H](O)Cc3cc4c(cc3[C@@H]12)OCO4 yielded an IC50 of 2510 nM.
CC(=O)O[C@H]1Cc2cc3c(cc2[C@@H]2[C@@]1(C)c1ccc4c(c1C[N@@+]2(C)[O-])OCO4)OCO3 was tested, and the IC50 was 2260 nM.
With CC(=O)O[C@H]1Cc2cc3c(cc2[C@H]2[C@@]1(C)c1ccc4c(c1C[N@@+]2(C)[O-])OCO4)OCO3 the IC50 was 33800 nM.
With COC(=O)C[C@H]1c2c(ccc3c2OCO3)[C@@]2(C)[C@@H](OC(C)=O)Cc3cc4c(cc3[C@H]2N1C)OCO4 the IC50 was 2030 nM.
Molecule CC(=O)O[C@H]1Cc2cc3c(cc2[C@H]2N(C)Cc4c(ccc5c4OCO5)[C@@]12C)OCO3 has an IC50 of 23100 nM.
COC(=O)C[C@H]1c2c(ccc3c2OCO3)[C@@]2(C)[C@@H](OC(C)=O)Cc3cc4c(cc3[C@@H]2N1C)OCO4 was tested, and the IC50 was 2190 nM.
For C[C@@]12c3ccc4c(c3C[N@@+](C)([O-])[C@H]1c1cc3c(cc1C[C@@H]2O)OCO3)OCO4, the IC50 was 2790 nM.
